{"source": "patent US10865391B2", "about": "“Glutamate dehydrogenase mutants and their application in preparation of L-phosphinothricin” (ZHEJIANG UNIVERSITY, priority 2018, dated 2020)", "type_in_all_cases": "biochemical, Pseudomonas putida", "key": {"PpGluDH-V378A": {"test_system": "PpGluDH-V378A", "experiment": "Catalytic activity toward other keto acid substrates by spectrophotometry, V378A mutant", "settings": "keto acid as substrate; for Specific activity (U/mg) V378A: PpGluDH-V378A; for Catalytic activity of PpGluDH-V378A compared with the wild type: result in words"}, "wild type PpGluDH": {"test_system": "wild type PpGluDH", "experiment": "Catalytic activity toward other keto acid substrates by spectrophotometry, wild type", "settings": "keto acid as substrate"}, "PpGluDH-A167G": {"test_system": "PpGluDH-A167G", "experiment": "Catalytic activity toward other keto acid substrates by spectrophotometry, A167G mutant", "settings": "keto acid as substrate; for Specific activity (U/mg) A167G: PpGluDH-A167G; for Catalytic activity of PpGluDH-A167G compared with the wild type: result in words"}}, "data": [{"smiles": "O=C(O)C(=O)Cc1ccccc1", "note": "[11a, Phenylpyruvic acid]", "values": [{"measurement": "Specific activity (U/mg) V378A", "setting": "PpGluDH-V378A", "value": "<0.01", "unit": "U/mg"}, {"measurement": "Specific activity (U/mg) Wild", "setting": "wild type PpGluDH", "value": "<0.01", "unit": "U/mg"}, {"measurement": "Specific activity (U/mg) A167G", "setting": "PpGluDH-A167G", "value": "<0.01", "unit": "U/mg"}]}, {"smiles": "CC(=O)C(=O)O", "note": "[2a, Pyruvic acid]", "values": [{"measurement": "Specific activity (U/mg) V378A", "setting": "PpGluDH-V378A", "value": 0.01, "unit": "U/mg"}, {"measurement": "Specific activity (U/mg) Wild", "setting": "wild type PpGluDH", "value": 0.15, "unit": "U/mg"}, {"measurement": "Specific activity (U/mg) A167G", "setting": "PpGluDH-A167G", "value": "<0.01", "unit": "U/mg"}]}, {"smiles": "CCC(C)C(=O)C(=O)O", "note": "(stereo not drawn) [7a, 3-Methyl-2-Oxovaleric acid]", "values": [{"measurement": "Specific activity (U/mg) V378A", "setting": "PpGluDH-V378A", "value": 0.03, "unit": "U/mg"}, {"measurement": "Specific activity (U/mg) Wild", "setting": "wild type PpGluDH", "value": 0.07, "unit": "U/mg"}, {"measurement": "Specific activity (U/mg) A167G", "setting": "PpGluDH-A167G", "value": "<0.01", "unit": "U/mg"}]}, {"smiles": "CCCCC(=O)C(=O)O", "note": "[9a, 2-Ketohexanoic acid]", "values": [{"measurement": "Specific activity (U/mg) V378A", "setting": "PpGluDH-V378A", "value": 1.49, "unit": "U/mg"}, {"measurement": "Catalytic activity of PpGluDH-V378A compared with the wild type", "setting": "PpGluDH-V378A", "value": "improved catalytic activity"}, {"measurement": "Specific activity (U/mg) Wild", "setting": "wild type PpGluDH", "value": 0.71, "unit": "U/mg"}, {"measurement": "Specific activity (U/mg) A167G", "setting": "PpGluDH-A167G", "value": 1.23, "unit": "U/mg"}, {"measurement": "Catalytic activity of PpGluDH-A167G compared with the wild type", "setting": "PpGluDH-A167G", "value": "improved catalytic activity"}]}, {"smiles": "CCCC(=O)C(=O)O", "note": "[6a, 2-Oxovaleric acid]", "values": [{"measurement": "Specific activity (U/mg) V378A", "setting": "PpGluDH-V378A", "value": 2.37, "unit": "U/mg"}, {"measurement": "Specific activity (U/mg) Wild", "setting": "wild type PpGluDH", "value": 6.39, "unit": "U/mg"}, {"measurement": "Specific activity (U/mg) A167G", "setting": "PpGluDH-A167G", "value": 1.21, "unit": "U/mg"}]}, {"smiles": "CC(C)CC(=O)C(=O)O", "note": "[8a, 4-Methyl-2-Oxovaleric acid]", "values": [{"measurement": "Specific activity (U/mg) V378A", "setting": "PpGluDH-V378A", "value": 0.03, "unit": "U/mg"}, {"measurement": "Specific activity (U/mg) Wild", "setting": "wild type PpGluDH", "value": 0.05, "unit": "U/mg"}, {"measurement": "Specific activity (U/mg) A167G", "setting": "PpGluDH-A167G", "value": 0.01, "unit": "U/mg"}]}, {"smiles": "O=C(O)CCC(=O)C(=O)O", "note": "[1a, 2-Ketoglutaric acid]", "values": [{"measurement": "Specific activity (U/mg) V378A", "setting": "PpGluDH-V378A", "value": 268.48, "unit": "U/mg"}, {"measurement": "Catalytic activity of PpGluDH-V378A compared with the wild type", "setting": "PpGluDH-V378A", "value": "improved catalytic activity"}, {"measurement": "Specific activity (U/mg) Wild", "setting": "wild type PpGluDH", "value": 189.05, "unit": "U/mg"}, {"measurement": "Specific activity (U/mg) A167G", "setting": "PpGluDH-A167G", "value": 314.41, "unit": "U/mg"}, {"measurement": "Catalytic activity of PpGluDH-A167G compared with the wild type", "setting": "PpGluDH-A167G", "value": "improved catalytic activity"}]}, {"smiles": "CC(C)C(=O)C(=O)O", "note": "[4a, 3-Methyl-2-oxobutanoic acid]", "values": [{"measurement": "Specific activity (U/mg) V378A", "setting": "PpGluDH-V378A", "value": 0.04, "unit": "U/mg"}, {"measurement": "Specific activity (U/mg) Wild", "setting": "wild type PpGluDH", "value": 0.37, "unit": "U/mg"}, {"measurement": "Specific activity (U/mg) A167G", "setting": "PpGluDH-A167G", "value": "<0.01", "unit": "U/mg"}]}, {"smiles": "O=C(O)C(=O)c1ccccc1", "note": "[10a, Phenylglyoxylic acid]", "values": [{"measurement": "Specific activity (U/mg) V378A", "setting": "PpGluDH-V378A", "value": 0.01, "unit": "U/mg"}, {"measurement": "Specific activity (U/mg) Wild", "setting": "wild type PpGluDH", "value": 0.04, "unit": "U/mg"}, {"measurement": "Specific activity (U/mg) A167G", "setting": "PpGluDH-A167G", "value": 0.01, "unit": "U/mg"}]}, {"smiles": "O=C(O)C(=O)Cc1ccc(O)cc1", "note": "[13a, 4-hydroxyphenylpyruvic acid]", "values": [{"measurement": "Specific activity (U/mg) V378A", "setting": "PpGluDH-V378A", "value": "<0.01", "unit": "U/mg"}, {"measurement": "Specific activity (U/mg) Wild", "setting": "wild type PpGluDH", "value": 0.02, "unit": "U/mg"}, {"measurement": "Specific activity (U/mg) A167G", "setting": "PpGluDH-A167G", "value": "<0.01", "unit": "U/mg"}]}, {"smiles": "O=C(O)C(=O)CCc1ccccc1", "note": "[12a, 2-Oxo-4-phenylbutyric acid]", "values": [{"measurement": "Specific activity (U/mg) V378A", "setting": "PpGluDH-V378A", "value": 0.04, "unit": "U/mg"}, {"measurement": "Catalytic activity of PpGluDH-V378A compared with the wild type", "setting": "PpGluDH-V378A", "value": "decreased"}, {"measurement": "Specific activity (U/mg) Wild", "setting": "wild type PpGluDH", "value": 0.08, "unit": "U/mg"}, {"measurement": "Specific activity (U/mg) A167G", "setting": "PpGluDH-A167G", "value": 0.33, "unit": "U/mg"}, {"measurement": "Catalytic activity of PpGluDH-A167G compared with the wild type", "setting": "PpGluDH-A167G", "value": "improved to some extent"}]}, {"smiles": "CCC(=O)C(=O)O", "note": "[3a, 2-Ketobutyric acid]", "values": [{"measurement": "Specific activity (U/mg) V378A", "setting": "PpGluDH-V378A", "value": 0.34, "unit": "U/mg"}, {"measurement": "Specific activity (U/mg) Wild", "setting": "wild type PpGluDH", "value": 4.93, "unit": "U/mg"}, {"measurement": "Specific activity (U/mg) A167G", "setting": "PpGluDH-A167G", "value": 0.09, "unit": "U/mg"}]}]}
